Structures are written as SMILES. Values after ≈ are worked out from the molar mass of the structure shown.

One data set deals with Oryctolagus sp. The conditions noted are these: acute; oral; mortality.
The test system of a further data set is Daphnia magna. As to conditions: chronic/long-term; duration: 21 days; reproduction.
For another data set, the system named is Lepomis macrochirus. The conditions noted are these: acute; duration: 96 hours; mortality.
The test system of the next data set is Aphidius rhopalosiphi. As to conditions: acute; duration: 2 days; mortality.
For the next data set, the system named is Apis mellifera. As to conditions: acute; duration: 48 hours; dermal; mortality.
In the next data set the test system is Bird. As to conditions: acute; oral; unspecified; mortality.
Another data set relates to Canidae. The conditions noted are these: chronic; duration: 1 years; oral; Dog Other; clinical signs.

Take `CCCCN(CCCC)SN(C)C(=O)Oc1cccc2c1OC(C)(C)C2` [Carbosulfan]: the NOAEL (usually the highest dose or exposure tested at which no adverse effect was seen) turned out to be 1 mg/kg-day with Rattus norvegicus (chronic, duration: 104 weeks, neurology) and 2 mg/kg-day with Rattus norvegicus (subchronic, duration: 90 days, oral, clinical chemistry). The LD50 in the data set with Oryctolagus sp. was 42.7 mg/kg-day; in the data set on Apis mellifera, 0.18 µg/piece; in the data set on Bird, 10 mg/kg. For the same compound, the NOEL stood at 2.51 mg/kg in the data set with Anas platyrhynchos (acute, oral, unspecified, mortality) and 2.5 mg/kg-day in the data set with Anas platyrhynchos (reproductive). Further, the LC50 came out at 3.99 mg/kg-day with Anas platyrhynchos (short-term, oral, feed, mortality) and 0.015 µg/mL (≈ 0.0394 µM) with Lepomis macrochirus. The compound further yielded an NOEC with Daphnia magna of 0.0032 mg/L. This compound yielded an LEL in the data set with Aphidius rhopalosiphi of 120 g/ha.
In the case of `CNC(=O)Oc1cccc2c1OC(C)(C)C2` [Carbofuran], the NOAEL in the data set with Rattus norvegicus (reproduction developmental) and with Canidae was 0.1 mg/kg-day throughout.

These data come from EPA's ToxValDB 9.5 (doi:10.2903/j.efsa.2006.91r).
